Source: US8486951B2 (Deciphera Pharmaceuticals, LLC, priority 2008, dated 2013)
pIC50: −log10 of the molar value.

What was measured:
Assay type in all cases: biochemical
[1] = biological target: T1, c-MET kinase (Seq. ID no. 2) (Homo sapiens, UniProt P08581); assay: c-MET Kinase Assay (ADP production, pyruvate kinase/lactate dehydrogenase coupled); conditions: read-out: cMET Enzyme Assay
T1 construct: purchased Invitrogen PV3143
Description: In this assay, the oxidation of NADH (thus the decrease at A340 nm) was continuously monitored spectrophometrically. […] Test compounds were incubated with C-Met (Seq. ID no. 2) and other reaction reagents at 22° C. for 0.5 h before ATP (100 μM) was added to start the reaction. The absorption at 340 nm was monitored continuously for 2 hours at 30° C. on Polarstar Optima plate reader (BMG). The reaction rate was calculated using the 1.0 to 2.0 h time frame. Percent inhibition was obtained by comparison of reaction rate with that of a control (i.e. with no test compound). IC50 values were calculated from a series of percent inhibition values determined at a range of inhibitor concentrations using software routines as implemented in the GraphPad Prism software package.

[2] = biological target: T2, c-KIT kinase (Seq. ID no. 1) (Homo sapiens, UniProt P10721); assay: c-KIT kinase Assay (ADP production, pyruvate kinase/lactate dehydrogenase coupled); conditions: read-out: cKIT Enzyme Assay
T2 construct: purchased ProQinase
Description: In this assay, the oxidation of NADH (thus the decrease at A340 nm) was continuously monitored spectrophometrically. […] The absorption at 340 nm was monitored continuously for 0.5 hours at 30° C. on Polarstar Optima plate reader (BMG). The reaction rate was calculated using the 0 to 0.5 h time frame. Percent inhibition was obtained by comparison of reaction rate with that of a control (i.e. with no test compound). IC50 values were calculated from a series of percent inhibition values determined at a range of inhibitor concentrations using software routines as implemented in the GraphPad Prism software package.

[3] = biological target: KDR kinase (Seq ID No. 3) (Homo sapiens, UniProt P35968, DEL940-989/E990V); assay: KDR Kinase Assay (assays K1, K2, K3); conditions: assay variant K1, K2 or K3 not stated; read-out: KDR Enzyme Assay
PDGFRα kinase = biological target: T3, PDGFRα kinase (Homo sapiens, UniProt P16234); assay: PDGFRα Kinase Assay; conditions: read-out: PDGFRa Enzyme Assay
T3 construct: purchased Invitrogen
Description: (§1) Activity of PDGFRα kinase was determined by following the production of ADP from the kinase reaction through coupling with the pyruvate kinase/lactate dehydrogenase system. In this assay, the oxidation of NADH (thus the decrease at A340 nm) was continuously monitored spectrophometrically. The reaction mixture (100 μl) contained PDGFRα (Invitrogen, 10 nM), polyE4Y (1 mg/ml), MgCl2 (10 mM), pyruvate kinase (4 units), lactate dehydrogenase (0.7 units), phosphoenol pyruvate (1 mM) and NADH (0.28 mM) and ATP (500 μM) in a 90 mM Tris buffer containing 0.2% octyl-glucoside and 1% DMSO, pH 7.5. The inhibition reaction was started by mixing serial diluted test compound with the above reaction mixture. The absorption at 340 nm was monitored continuously for 4 hours at 30° C. on a Polarstar Optima or Synergy 2 plate reader. The reaction rate was calculated using the 2 to 3 h time frame. Percent inhibition was obtained by comparison of reaction rate with that of a control (i.e. with no test compound). IC50 values were calculated from a series of percent inhibition values determined at a range of inhibitor concentrations using software routines as implemented in the GraphPad Prism software package.

FMS kinase = biological target: T4, FMS kinase (Homo sapiens, UniProt P07333); assay: FMS Kinase Assay; conditions: read-out: FMS Enzyme Assay
T4 construct: purchased Invitrogen or Millipore
Description: as §1, with “In” for “Activity of PDGFRα kinase was determined by following the production of ADP from the kinase reaction through coupling with the pyruvate kinase/lactate dehydrogenase system. In”, “FMS (purchased from Invitrogen or Millipore, 6” for “PDGFRα (Invitrogen, 10”

PDGFRβ = biological target: T5, PDGFRβ (Homo sapiens, UniProt P09619); assay: PDGFRβ Kinase Assay; conditions: read-out: PDGFRb Enzyme Assay
T5 construct: purchased Invitrogen
T5 sequence (P09619 33-1106): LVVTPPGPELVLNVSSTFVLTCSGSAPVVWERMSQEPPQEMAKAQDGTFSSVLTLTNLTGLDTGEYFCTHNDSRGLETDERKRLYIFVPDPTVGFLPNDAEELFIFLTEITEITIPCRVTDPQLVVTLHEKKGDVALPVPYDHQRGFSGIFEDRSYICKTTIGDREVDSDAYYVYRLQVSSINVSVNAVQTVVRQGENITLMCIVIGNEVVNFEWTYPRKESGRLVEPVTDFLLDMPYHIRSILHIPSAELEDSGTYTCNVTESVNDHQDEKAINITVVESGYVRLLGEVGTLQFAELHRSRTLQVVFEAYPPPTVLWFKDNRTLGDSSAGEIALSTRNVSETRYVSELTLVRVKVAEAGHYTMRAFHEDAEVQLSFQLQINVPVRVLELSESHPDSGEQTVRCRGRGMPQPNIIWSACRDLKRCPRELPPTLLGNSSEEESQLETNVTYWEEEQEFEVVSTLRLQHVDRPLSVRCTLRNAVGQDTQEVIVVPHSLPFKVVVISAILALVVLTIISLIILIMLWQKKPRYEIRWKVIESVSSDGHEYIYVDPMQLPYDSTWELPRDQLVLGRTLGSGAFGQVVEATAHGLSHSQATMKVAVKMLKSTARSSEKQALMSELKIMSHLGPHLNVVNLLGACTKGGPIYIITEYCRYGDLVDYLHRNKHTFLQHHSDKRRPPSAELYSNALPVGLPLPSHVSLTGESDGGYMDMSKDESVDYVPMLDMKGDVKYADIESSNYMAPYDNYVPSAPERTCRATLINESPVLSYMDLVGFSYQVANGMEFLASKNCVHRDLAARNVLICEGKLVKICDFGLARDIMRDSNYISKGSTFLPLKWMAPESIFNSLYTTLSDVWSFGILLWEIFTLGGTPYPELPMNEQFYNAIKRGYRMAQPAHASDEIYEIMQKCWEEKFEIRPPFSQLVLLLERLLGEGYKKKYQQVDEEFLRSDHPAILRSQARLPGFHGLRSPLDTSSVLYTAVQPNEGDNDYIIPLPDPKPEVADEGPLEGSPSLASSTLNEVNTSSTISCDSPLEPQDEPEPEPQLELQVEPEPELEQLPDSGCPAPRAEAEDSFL

Chain of KDR kinase (Seq ID No. 3) (P35968 with tags, fused parts or gaps DEL940-989/E990V): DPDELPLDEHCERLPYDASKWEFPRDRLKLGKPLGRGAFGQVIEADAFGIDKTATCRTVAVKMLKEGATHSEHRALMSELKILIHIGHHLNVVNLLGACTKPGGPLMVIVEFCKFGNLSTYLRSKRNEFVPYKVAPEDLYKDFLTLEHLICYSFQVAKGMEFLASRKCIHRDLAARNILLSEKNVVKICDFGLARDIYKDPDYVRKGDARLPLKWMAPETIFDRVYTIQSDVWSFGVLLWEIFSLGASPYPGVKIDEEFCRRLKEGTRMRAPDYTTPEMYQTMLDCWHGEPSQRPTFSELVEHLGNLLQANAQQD
T4 sequence (P07333 20-972): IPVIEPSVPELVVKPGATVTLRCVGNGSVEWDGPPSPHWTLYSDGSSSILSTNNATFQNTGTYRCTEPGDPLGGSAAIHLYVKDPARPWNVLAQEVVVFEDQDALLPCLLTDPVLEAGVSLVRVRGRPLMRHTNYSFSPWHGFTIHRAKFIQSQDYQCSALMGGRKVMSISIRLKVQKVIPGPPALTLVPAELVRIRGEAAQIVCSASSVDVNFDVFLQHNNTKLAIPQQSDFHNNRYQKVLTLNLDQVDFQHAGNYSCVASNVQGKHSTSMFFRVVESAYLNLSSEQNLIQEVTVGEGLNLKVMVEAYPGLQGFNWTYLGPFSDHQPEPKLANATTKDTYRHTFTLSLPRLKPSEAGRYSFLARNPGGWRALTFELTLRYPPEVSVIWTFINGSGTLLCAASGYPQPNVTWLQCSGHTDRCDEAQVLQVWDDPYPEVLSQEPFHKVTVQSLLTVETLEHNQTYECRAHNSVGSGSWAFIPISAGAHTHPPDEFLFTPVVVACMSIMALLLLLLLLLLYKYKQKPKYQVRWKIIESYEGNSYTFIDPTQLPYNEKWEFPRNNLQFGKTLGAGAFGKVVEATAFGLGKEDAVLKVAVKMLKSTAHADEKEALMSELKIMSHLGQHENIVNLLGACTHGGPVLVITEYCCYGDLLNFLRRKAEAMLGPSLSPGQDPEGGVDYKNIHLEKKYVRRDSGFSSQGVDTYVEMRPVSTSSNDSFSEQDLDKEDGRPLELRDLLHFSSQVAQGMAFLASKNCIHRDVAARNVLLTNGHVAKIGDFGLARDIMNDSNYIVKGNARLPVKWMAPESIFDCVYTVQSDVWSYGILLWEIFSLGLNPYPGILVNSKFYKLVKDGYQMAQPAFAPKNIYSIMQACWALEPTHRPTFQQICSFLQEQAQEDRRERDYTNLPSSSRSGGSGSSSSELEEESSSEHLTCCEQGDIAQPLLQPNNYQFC
T3 sequence (P16234 24-1089): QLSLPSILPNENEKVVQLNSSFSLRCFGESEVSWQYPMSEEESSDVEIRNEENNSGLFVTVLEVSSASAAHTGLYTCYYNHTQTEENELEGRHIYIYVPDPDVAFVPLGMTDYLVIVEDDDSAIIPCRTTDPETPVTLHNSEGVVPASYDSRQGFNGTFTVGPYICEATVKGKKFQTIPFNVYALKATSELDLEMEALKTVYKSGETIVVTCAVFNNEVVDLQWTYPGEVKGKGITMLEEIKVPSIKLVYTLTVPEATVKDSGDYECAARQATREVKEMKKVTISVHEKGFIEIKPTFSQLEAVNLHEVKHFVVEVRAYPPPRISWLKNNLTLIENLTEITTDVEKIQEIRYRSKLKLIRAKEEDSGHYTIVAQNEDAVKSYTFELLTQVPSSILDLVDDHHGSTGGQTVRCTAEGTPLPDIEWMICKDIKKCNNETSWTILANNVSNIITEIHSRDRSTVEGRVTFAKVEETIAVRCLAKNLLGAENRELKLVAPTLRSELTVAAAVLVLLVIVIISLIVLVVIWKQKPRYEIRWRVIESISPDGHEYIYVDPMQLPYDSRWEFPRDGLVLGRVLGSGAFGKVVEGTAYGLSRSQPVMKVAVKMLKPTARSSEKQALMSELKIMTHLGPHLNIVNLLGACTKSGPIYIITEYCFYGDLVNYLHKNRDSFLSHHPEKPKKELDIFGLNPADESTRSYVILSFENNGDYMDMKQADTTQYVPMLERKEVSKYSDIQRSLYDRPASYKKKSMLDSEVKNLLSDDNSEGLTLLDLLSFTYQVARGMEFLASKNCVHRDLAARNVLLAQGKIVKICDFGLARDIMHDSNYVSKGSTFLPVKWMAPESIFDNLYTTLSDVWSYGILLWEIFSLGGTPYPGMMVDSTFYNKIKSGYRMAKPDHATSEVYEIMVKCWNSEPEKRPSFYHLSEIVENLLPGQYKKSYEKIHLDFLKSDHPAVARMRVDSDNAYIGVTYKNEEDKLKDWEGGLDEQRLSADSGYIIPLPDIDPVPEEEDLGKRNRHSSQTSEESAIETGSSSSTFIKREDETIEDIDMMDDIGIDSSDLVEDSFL
T1 sequence (P08581 with tags, fused parts or gaps): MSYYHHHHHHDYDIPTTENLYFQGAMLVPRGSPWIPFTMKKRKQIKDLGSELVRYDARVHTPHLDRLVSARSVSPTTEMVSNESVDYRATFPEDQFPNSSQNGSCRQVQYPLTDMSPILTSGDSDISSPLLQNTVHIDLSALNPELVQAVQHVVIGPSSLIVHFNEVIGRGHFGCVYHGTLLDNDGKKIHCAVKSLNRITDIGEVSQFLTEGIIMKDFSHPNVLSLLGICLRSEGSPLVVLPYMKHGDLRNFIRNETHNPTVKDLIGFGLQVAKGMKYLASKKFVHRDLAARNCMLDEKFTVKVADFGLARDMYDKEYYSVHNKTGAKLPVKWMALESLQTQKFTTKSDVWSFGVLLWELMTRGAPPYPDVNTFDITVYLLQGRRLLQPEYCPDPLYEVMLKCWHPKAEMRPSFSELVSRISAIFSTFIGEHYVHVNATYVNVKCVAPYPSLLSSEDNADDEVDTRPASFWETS
T2 sequence (P10721 with tags, fused parts or gaps): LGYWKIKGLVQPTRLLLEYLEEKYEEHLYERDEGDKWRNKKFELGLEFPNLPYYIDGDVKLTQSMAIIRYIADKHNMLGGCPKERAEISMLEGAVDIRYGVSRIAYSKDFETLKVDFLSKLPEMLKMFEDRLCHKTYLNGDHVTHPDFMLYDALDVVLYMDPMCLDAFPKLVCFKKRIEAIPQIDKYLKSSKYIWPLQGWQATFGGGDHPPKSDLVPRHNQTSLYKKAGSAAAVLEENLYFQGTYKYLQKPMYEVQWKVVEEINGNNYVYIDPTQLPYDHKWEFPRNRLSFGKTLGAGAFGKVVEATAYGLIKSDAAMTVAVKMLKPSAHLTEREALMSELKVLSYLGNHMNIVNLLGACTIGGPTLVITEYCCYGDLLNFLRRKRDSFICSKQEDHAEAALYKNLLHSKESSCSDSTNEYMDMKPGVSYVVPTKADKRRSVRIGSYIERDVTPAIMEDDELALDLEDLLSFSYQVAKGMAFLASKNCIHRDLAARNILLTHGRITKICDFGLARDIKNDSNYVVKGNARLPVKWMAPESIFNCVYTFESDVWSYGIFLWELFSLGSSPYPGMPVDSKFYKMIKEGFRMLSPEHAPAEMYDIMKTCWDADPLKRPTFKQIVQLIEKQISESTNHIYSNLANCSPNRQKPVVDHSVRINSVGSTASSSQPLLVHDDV

Row | Compound | pIC50 [1] | pIC50 [3] | further results
1 | CN(C(=O)C1(C(=O)Nc2ccc(F)cc2)CC1)c1ccc(Oc2ccnc(-c3cnn(C)c3)c2)c(F)c1 [Example 58, N-(3-fluoro-4-(2-(1-methyl-1H-pyrazol-4-yl)pyridin-4-yloxy)phenyl)-N′-(4-fluorophenyl)-N-methylcyclopropane-1,1-dicarboxamide] | > 5.00 | > 5.00 | pIC50 [2]: > 5.00; pIC50 (PDGFRα kinase): > 5.00
2 | Cn1cc(-c2cc(Oc3ccc(NC(=O)C4(C(=O)Nc5ccc(C#N)cc5)CC4)c(F)c3)ccn2)cn1 [Example 28, N-(4-cyanophenyl)-N′-(2-fluoro-4-(2-(1-methyl-1H-pyrazol-4-yl)pyridin-4-yloxy)phenyl)cyclopropane-1,1-dicarboxamide] | > 5.00 | – | –
3 | Cc1cc(F)c(NC(=O)C2(C(=O)Nc3ccc(F)cc3)CC2)cc1Oc1nccc(-c2cnn(C)c2)n1 [Example 52, N-(2-fluoro-4-methyl-5-(4-(1-methyl-1H-pyrazol-4-yl)pyrimidin-2-yloxy)phenyl)-N′-(4-fluorophenyl)cyclopropane-1,1-dicarboxamide] | > 5.00 | > 5.00 | pIC50 (FMS kinase): > 5.00
4 | Cn1cc(-c2cc(Oc3ccc(NC(=O)C4(C(=O)Nc5ccc(F)cc5F)CC4)c(F)c3)ccn2)cn1 [Example 27, N-(2,4-difluorophenyl)-N′-(2-fluoro-4-(2-(1-methyl-1H-pyrazol-4-yl)pyridin-4-yloxy)phenyl)cyclopropane-1,1-dicarboxamide] | > 5.70 | – | –
5 | Cn1cc(-c2cc(Oc3ccc(NC(=O)C4(C(=O)Nc5ccc(C(F)(F)F)cc5)CC4)c(F)c3)ccn2)cn1 [Example 25, N-(2-fluoro-4-(2-(1-methyl-1H-pyrazol-4-yl)pyridin-4-yloxy)phenyl)-N′-(4-(trifluoromethyl)phenyl)cyclopropane-1,1-dicarboxamide] | > 5.70 | – | –
6 | Cc1cc(-c2cc(Oc3ccc(NC(=O)C4(C(=O)Nc5ccc(F)cc5)CC4)c(F)c3)ccn2)on1 [Example 59, N-(2-fluoro-4-(2-(3-methylisoxazol-5-yl)pyridin-4-yloxy)phenyl)-N′-(4-fluorophenyl)cyclopropane-1,1-dicarboxamide] | > 6.70 | > 5.00 | pIC50 (FMS kinase): > 6.70
7 | Cn1cc(-c2cc(Oc3ccc(NC(=O)C4(C(=O)Nc5ccc(F)c(C#N)c5)CC4)c(F)c3)ccn2)cn1 [Example 26, N-(3-cyano-4-fluorophenyl)-N′-(2-fluoro-4-(2-(1-methyl-1H-pyrazol-4-yl)pyridin-4-yloxy)phenyl)cyclopropane-1,1-dicarboxamide] | > 5.00 | – | –
8 | Cn1cc(-c2cc(Oc3ccc(NC(=O)C4(C(=O)Nc5ccc(F)cc5)CC4)cn3)ccn2)cn1 [Example 38, N-(4-fluorophenyl)-N′-(6-(2-(1-methyl-1H-pyrazol-4-yl)pyridin-4-yloxy)pyridin-3-yl)cyclopropane-1,1-dicarboxamide] | > 5.70 | > 5.00 | pIC50 (FMS kinase): > 5.00
9 | Cn1cc(-c2cc(Oc3ccc(NC(=O)C4(C(=O)Nc5cccs5)CC4)c(F)c3)ccn2)cn1 [Example 35, N-(2-fluoro-4-(2-(1-methyl-1H-pyrazol-4-yl)pyridin-4-yloxy)phenyl)-N′-(thiophen-2-yl)cyclopropane-1,1-dicarboxamide] | > 5.70 | – | –
10 | O=C(Cc1ccc(F)cc1)NC(=O)Nc1ccc(Oc2ccnc(-c3nc(C(F)(F)F)c[nH]3)c2)cc1 [Example 39, 1-(2-(4-fluorophenyl)acetyl)-3-(4-(2-(4-(trifluoromethyl)-1,1-imidazol-2-yl)pyridin-4-yloxy)phenyl)urea] | – | – | pIC50 (PDGFRα kinase): > 6.70; pIC50 (PDGFRβ): > 5.70
11 | Cn1cc(-c2cc(Oc3ccc(NC(=O)C4(C(=O)NCc5ccccc5)CC4)c(F)c3F)ccn2)cn1 [Example 3, N-benzyl-N′-(2,3-difluoro-4-(2-(1-methyl-1H-pyrazol-4-yl)pyridin-4-yloxy)phenyl)cyclopropane-1,1-dicarboxamide] | – | > 5.70 | pIC50 (PDGFRα kinase): > 5.70; pIC50 (PDGFRβ): > 5.00
12 | Cc1cc(F)c(NC(=O)C2(C(=O)Nc3ccc(F)cc3)CC2)cc1Oc1nccc(-c2cn[nH]c2)n1 [Example 54, N-(5-(4-(1H-pyrazol-4-yl)pyrimidin-2-yloxy)-2-fluoro-4-methylphenyl)-N′-(4-fluorophenyl)cyclopropane-1,1-dicarboxamide] | > 5.00 | > 5.00 | pIC50 (FMS kinase): > 5.00
13 | Cn1cc(-c2cc(Oc3ccc(NC(=O)C4(C(=O)Nc5ccc(F)cc5Cl)CC4)c(F)c3)ccn2)cn1 [Example 29, N-(2-chloro-4-fluorophenyl)-N′-(2-fluoro-4-(2-(1-methyl-1H-pyrazol-4-yl)pyridin-4-yloxy)phenyl)cyclopropane-1,1-dicarboxamide] | > 5.70 | – | –
14 | Cn1cc(-c2cc(Oc3ccc(NC(=O)C4(C(=O)Nc5ccc(F)cc5)CC4)c(F)c3F)ccn2)cn1 [Example 1, N-(2,3-difluoro-4-(2-(1-methyl-1H-pyrazol-4-yl)pyridin-4-yloxy)phenyl)-N′-(4-fluorophenyl)cyclopropane-1,1-dicarboxamide] | > 6.70 | > 5.70 | pIC50 [2]: > 5.70; pIC50 (PDGFRα kinase): > 6.70; pIC50 (PDGFRβ): > 5.70
15 | C[C@H](NC(=O)C1(C(=O)Nc2ccc(Oc3ccnc(-c4cnn(C)c4)c3)c(F)c2)CC1)c1ccc(F)cc1 [Example 33, N-(3-fluoro-4-(2-(1-methyl-1H-pyrazol-4-yl)pyridin-4-yloxy)phenyl)-N′-((S)-1-(4-fluorophenyl)ethyl)cyclopropane-1,1-dicarboxamide] | > 5.70 | – | –
16 | O=C(Nc1ccc(F)cc1)C1(C(=O)Nc2ccc(Oc3ccnc(-c4c[nH]nn4)c3)cc2F)CC1 [Example 60, N-(4-(2-(1H-1,2,3-triazol-4-yl)pyridin-4-yloxy)-2-fluorophenyl)-N′-(4-fluorophenyl)cyclopropane-1,1-dicarboxamide] | > 5.70 | – | –
17 | Cn1cc(-c2ccnc(Oc3ccc(F)c(NC(=O)C4(C(=O)Nc5ccc(F)cc5)CC4)c3)n2)cn1 [Example 53, N-(2-fluoro-5-(4-(1-methyl-1H-pyrazol-4-yl)pyrimidin-2-yloxy)phenyl)-N′-(4-fluorophenyl)cyclopropane-1,1-dicarboxamide] | > 5.00 | > 5.00 | pIC50 (FMS kinase): > 5.00
18 | Cn1cc(-c2cc(Oc3ccc(NC(=O)C4(C(=O)Nc5ccc(F)c(F)c5)CC4)c(F)c3)ccn2)cn1 [Example 24, N-(3,4-difluorophenyl)-N′-(2-fluoro-4-(2-(1-methyl-1H-pyrazol-4-yl)pyridin-4-yloxy)phenyl)cyclopropane-1,1-dicarboxamide] | > 5.70 | – | –
19 | CC[C@H](NC(=O)C1(C(=O)Nc2ccc(Oc3ccnc(-c4cnn(C)c4)c3)c(F)c2)CC1)c1ccc(F)cc1 [Example 34, N-(3-fluoro-4-(2-(1-methyl-1H-pyrazol-4-yl)pyridin-4-yloxy)phenyl)-N′-((S)-1-(4-fluorophenyl)propyl)cyclopropane-1,1-dicarboxamide] | > 5.70 | – | –
20 | COC[C@H](NC(=O)C1(C(=O)Nc2ccc(Oc3ccnc(-c4cnn(C)c4)c3)c(F)c2)CC1)c1ccc(F)cc1 [Example 36, N-(3-fluoro-4-(2-(1-methyl-1H-pyrazol-4-yl)pyridin-4-yloxy)phenyl)-N′((R)-1-(4-fluorophenyl)-2-methoxyethyl)cyclopropane-1,1-dicarboxamide] | > 5.70 | – | –
